Laboratory results from patent US7230143B2, “Chromatographic method for the analysis of both in process and finished sevoflurane” (Halocarbon Products Corporation, priority 2004, dated 2007).

Assay: Partition of sevoflurane and HFIP in solvent/HF system
Format: physicochemical
Conditions: equal volumes, 25 C, fraction of original compound found in the solvent, by gas chromatography; for Partition Coefficients of Sevoflurane and HFIP in solvent/HF system: 1,2,3-trichloropropane: solvent 1,2,3-trichloropropane / HF; for Partition Coefficients of Sevoflurane and HFIP in solvent/HF system: HC-0.8 oil: solvent HC-0.8 oil (mixture of tetrachlorobutanes) / HF; for Partition Coefficients of Sevoflurane and HFIP in solvent/HF system: Krytox: solvent Krytox (1:1 mixture of DuPont Krytox GLP 100 and K6) / HF
Experimental: The partitions of sevoflurane and of HFIP in solvent/HF system were measured by mixing a small amount of either sevoflurane or HFIP with a two-layer mixture of equal volumes of a particular solvent and HF at 25 C. After enough mixing to reach equilibrium, the fraction of original compound found in the solvent was determined by gas chromatography and quantified using standards.

Row | SMILES | Partition Coefficients of Sevoflurane and HFIP in solvent/HF system: 1,2,3-trichloropropane | Partition Coefficients of Sevoflurane and HFIP in solvent/HF system: HC-0.8 oil | Partition Coefficients of Sevoflurane and HFIP in solvent/HF system: Krytox | Partition Coefficients of Sevoflurane and HFIP in solvent/HF system: Isooctane | Partition Coefficients of Sevoflurane and HFIP in solvent/HF system: Perfluoromethyldecalin
1 | OC(C(F)(F)F)C(F)(F)F [HFIP, 1,1,1,3,3,3-hexafluoro-2-propanol] | <0.005 | 0.01 | <0.005 | <0.005 | <0.005
2 | FCOC(C(F)(F)F)C(F)(F)F [Sevoflurane, fluoromethyl 2,2,2-trifluoro-1-(trifluoromethyl)ethyl ether] | 0.45 | 1.00 | 0.32 | 0.30 | 0.22
